Source: the NIST ThermoML archive (doi:10.1021/je100472t)
± gives the expanded uncertainty stated by the source.

Settings: 101.33 kPa, Liquid; for speed of sound: Pulse-echo method; for mass density: Vibrating tube method

| Structure (SMILES) | speed of sound (293.15 K) | mass density (293.15 K) | speed of sound (298.15 K) | mass density (298.15 K) | speed of sound (303.15 K) | mass density (303.15 K) |
| --- | --- | --- | --- | --- | --- | --- |
| CNc1ccccc1 [N-methylaniline] | 1582.5 ± 2.1 m/s | 986.295 ± 0.82 kg/m3 | 1563.9 ± 2.1 m/s | 982.278 ± 0.82 kg/m3 | 1546 ± 2.1 m/s | 978.284 ± 0.81 kg/m3 |
| Nc1ccccc1 [aniline] | 1657 ± 0.94 m/s | 1021.84 ± 0.092 kg/m3 | 1637.8 ± 0.9 m/s | 1017.51 ± 0.09 kg/m3 | 1619.3 ± 0.9 m/s | 1013.23 ± 0.088 kg/m3 |
| CCC(C)=O [butanone] | 1212 ± 0.8 m/s | 805.08 ± 0.14 kg/m3 | 1190.8 ± 0.8 m/s | 799.861 ± 0.14 kg/m3 | 1170.6 ± 0.8 m/s | 794.636 ± 0.14 kg/m3 |
| c1ccncc1 [pyridine] | 1436.6 ± 0.9 m/s | 983.163 ± 0.087 kg/m3 | 1416.2 ± 0.9 m/s | 978.138 ± 0.089 kg/m3 | 1396.9 ± 0.9 m/s | 973.148 ± 0.09 kg/m3 |
